From patent publication US12128040B2, “Selective estrogen receptor degraders” (Eli Lilly and Company, priority 2018, dated 2024)

How the values were obtained:
[1] = system: MCF7-ESR1 Y537N mutant cells; assay: Cell proliferation assay in MCF7-ESR1 Y537N-682; type: cell-based; settings: Homo sapiens, seven days, n=6, read-out: Relative IC50 (nM), cell proliferation
[2] = system: Y537N mutant ERα receptor; assay: PRα inhibition (ERα functional antagonism) cell assay in MCF7-ESR1 Y537N 682 CRISPR cells; type: cell-based; settings: Homo sapiens; MCF7-ESR1 Y537N 682 cells, 72 hours, n=14; read-out: Relative IC50 (nM), PRα inhibition
Excerpt: The purpose of the following PRα inhibition (ERα functional antagonism) cell assay is to determine the antagonistic activity of a test compound against the Y537N mutant ERα receptor. An antagonist in this assay is expected to block the function of the ERα receptor.
Culture MCF7-ESR1 Y537N-682 (generated by CRISPR/Cas9 gene editing of ESR1 gene in MCF7 cells, clone #682) in DMEM media supplemented with 10% FBS and 1% penicillin/streptomycin antibiotics and plate the cells (prior to becoming 70% confluent) in 384-well flat-bottom plates at a density of 4,000 cells per well in DMEM phenol red free media 10% FBS (20 μL volume) (charcoal stripped). Incubate the cells overnight in a cell culture incubator (5% CO2, 95% relative humidity and 37° C.) and allow the cells to attach to the plate. The following day dose the cells with the test compound. Use an Echo 555 acoustic dispenser to prepare compound serial dilutions (1:3) in a range from 6 μM to 0.0003 μM. […]
The following day, wash the cells with PBS […] (2×20 μL) and incubate with secondary antibody (20 μL/well) (1:1000 dilution, Goat anti-rabbit IgM ALEXA FLUOR™ 488) in PBS 1% BSA for 105 minutes at room temperature. […] Scan the plates with ACUMEN EXPLORER™ [Laser-scanning fluorescence microplate cytometer manufactured by TTP LABTECH LTD] to measure progesterone receptor alpha. […]

[3] = system: PGR (Progesterone Receptor alpha) gene expression; assay: In vivo target inhibition (IVTI) assay (PGR RT-qPCR) in MCF7 tumors; set-up: species or system mice; settings: MCF7 tumor xenograft, 30 mg/kg orally, 24 hours
Description: The purpose of this IVTI assay is to measure the ability of a test compound (SERD) to inhibit PGR (Progesterone Receptor alpha) gene expression (transcription) downstream of ERα in xenograft tumors implanted in mice.
Implant female NOD SCID mice (22-25 g) from Envigo RMS, Inc., Madison, Wisconsin with 5×10e^6 MCF7 ER+ve breast cancer cells (ATCC, #HTB-22) subcutaneously in the right flank region in 1:1 HBSS+[…]™ solution (200 μL). Implant a […] pellet (0.18 mg/pellet, 90 day release, from Innovative research) subcutaneously 1 day prior to tumor cell implantation. […] Sacrifice animals using isoflurane anesthesia plus cervical dislocation. Flash freeze tumors and store at −80° C. until processing for RNA isolation and RT-qPCR assay. Collect blood in EDTA tubes, spin down for plasma, and freeze at −80° C. in a 96-well plate. Determine test compound exposures using mass spectrometry.
Pulverize tumors in liquid nitrogen and lyse in 1×RNA lysis buffer (from RNA isolation kits) using Matrix D beads (MP Biomedical, #6913-500) in a FASTPREP-24™ Cell Disrupter machine (MP Biomedical). […] Measure isolated RNA concentration by diluting samples in RNase free water and measuring the absorbance at 260 nm on a plate reader (SpectraMax190). Subtract the average 260 nm absorbance measurement of the blank (RNase free water only) from the 260 nm measurements of all other RNA samples. […]

Question: With O=C(c1ccc(OCCN2CC(CF)C2)cc1)c1c(-c2ccc(C(F)(F)F)cc2F)cnc2cc(O)ccc12 [Example 1, (4-{2-[3-(Fluoromethyl)azetidin-1-yl]ethoxy}phenyl){3-[2-fluoro-4-(trifluoromethyl)phenyl]-7-hydroxyquinolin-4-yl}methanone] as the molecule, how does the IC50 [1] read?
Answer: 7.96 ± 3.69 nM

Question: And the IC50 [2]?
Answer: 7.6 ± 4.8 nM

Question: And the “inhibition of PRα (PGR) expression” value [3]?
Answer: 57%
